Results: ChEMBL document CHEMBL1201862, “PubChem BioAssay data set” (2004)
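Briefly, cells in 96-well plates were exposed to five compound concentrations for 48 h, and endpoints were estimated by linear interpolation. GI50 = concentration required for 50% inhibition of growth.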 Active and inactive are the calls of the source. Cut-off read from the data, not from the text of the source: active = GI50 up to about 1.1 µM and inactive = higher.

Legend:
Experiment in all cases: growth of human tumour cells (NCI), 48 h
COLO 205 = system: COLO 205
EKVX = system: EKVX
HCT-15 = system: HCT-15
HOP-92 = system: HOP-92
IGROV-1 = system: IGROV-1
KM12 = system: KM12
MOLT-4 = system: MOLT-4
Malme-3M = system: Malme-3M
NCI-H522 = system: NCI-H522
OVCAR-3 = system: OVCAR-3
OVCAR-4 = system: OVCAR-4
RXF 393 = system: RXF 393
SF-268 = system: SF-268
SF-295 = system: SF-295
SNB-19 = system: SNB-19

SMILES	GI50 (COLO 205)	GI50 (EKVX)	GI50 (HCT-15)	GI50 (HOP-92)	GI50 (IGROV-1)	GI50 (KM12)	GI50 (MOLT-4)	GI50 (Malme-3M)	GI50 (NCI-H522)	GI50 (OVCAR-3)	GI50 (OVCAR-4)	GI50 (RXF 393)	GI50 (SF-268)	GI50 (SF-295)	GI50 (SNB-19)
CC1=CC(=O)N2[C@H](OC[C@@H]2C(C)C)O1	> 100 µM (inactive)	> 10 µM (inactive)	> 100 µM	> 100 µM (inactive)	> 100 µM (inactive)	> 100 µM (inactive)	> 100 µM (inactive)	> 100 µM (inactive)	> 100 µM (inactive)	> 100 µM (inactive)	> 100 µM (inactive)	> 100 µM (inactive)	> 100 µM (inactive)	> 100 µM (inactive)	> 100 µM (inactive)
Nc1cc(-c2ccccc2)nn1-c1nsc2ccccc12	> 100 µM (inactive)	47.8 µM (inactive)	95.3 µM	63.4 µM (inactive)	83.9 µM (inactive)	> 100 µM (inactive)	55.1 µM (inactive)			94.2 µM (inactive)	> 100 µM (inactive)	14.4 µM (inactive)	58.9 µM (inactive)		> 100 µM (inactive)
Cc1ccc(N2C(=O)/C(=C/c3ccc(N(CCC#N)CCC#N)cc3)N=C2COc2ccc(Cl)cc2Cl)cc1	> 100 µM (inactive)	> 100 µM (inactive)	> 100 µM		> 100 µM (inactive)	> 100 µM (inactive)	> 100 µM (inactive)	> 100 µM (inactive)	> 100 µM (inactive)	> 100 µM (inactive)	> 100 µM (inactive)	> 100 µM (inactive)	> 100 µM (inactive)	> 100 µM (inactive)	> 100 µM (inactive)
COc1ccc(Oc2ccccc2N)cc1	16.6 µM (inactive)	93.8 µM (inactive)	9.51 µM	96.2 µM (inactive)	36.6 µM (inactive)	20.9 µM (inactive)	18 µM (inactive)	> 100 µM (inactive)		26.4 µM (inactive)	57.3 µM (inactive)	19.8 µM (inactive)	42.1 µM (inactive)	26.1 µM (inactive)	
c1ccc(OCc2nnc3n2N=C(c2ccccc2)CS3)cc1			> 100 µM	> 100 µM (inactive)	> 100 µM (inactive)	> 100 µM (inactive)	71.6 µM (inactive)	> 100 µM (inactive)	55.5 µM (inactive)	> 100 µM (inactive)	> 100 µM (inactive)	> 100 µM (inactive)	> 100 µM (inactive)	> 100 µM (inactive)	> 100 µM (inactive)
O=C1OC(c2ccccc2)=N/C1=C\c1c(O)cc(O)cc1O	> 100 µM (inactive)	> 100 µM (inactive)	38 µM	> 100 µM (inactive)	> 100 µM (inactive)	> 100 µM (inactive)	> 100 µM (inactive)	> 100 µM (inactive)	47.2 µM (inactive)	> 100 µM (inactive)	> 100 µM (inactive)	> 100 µM (inactive)	99.5 µM (inactive)		> 100 µM (inactive)
Cc1c(C2Cc3ccccc3N2C(=O)/C=C\C(=O)O)c2ccccc2n1C (centres undefined)	17.1 µM (inactive)	30.2 µM (inactive)	> 100 µM	17.7 µM (inactive)	24.4 µM (inactive)	18.4 µM (inactive)	27.7 µM (inactive)	15.9 µM (inactive)	19.2 µM (inactive)	17.5 µM (inactive)	30.6 µM (inactive)	17.2 µM (inactive)	18.7 µM (inactive)	24.4 µM (inactive)	17.4 µM (inactive)
N#CC1(C#N)C(c2ccc(C3C(C#N)(C#N)C3(C#N)C#N)cc2)C1(C#N)C#N	> 100 µM (inactive)	> 100 µM (inactive)	> 100 µM	> 100 µM (inactive)	> 100 µM (inactive)	> 100 µM (inactive)	> 100 µM (inactive)	> 100 µM (inactive)	58.3 µM (inactive)	> 100 µM (inactive)	> 100 µM (inactive)	> 100 µM (inactive)	> 100 µM (inactive)	> 100 µM (inactive)	> 100 µM (inactive)
O=C(Nc1cc(Cl)ccc1Cl)C(=O)C(c1cnc2ccccc2n1)[N+](=O)[O-] (centres undefined)	> 100 µM (inactive)	> 100 µM (inactive)	> 100 µM	> 100 µM (inactive)	> 100 µM (inactive)	> 100 µM (inactive)	> 100 µM (inactive)	> 100 µM (inactive)	85.1 µM (inactive)	> 100 µM (inactive)	> 100 µM (inactive)	> 100 µM (inactive)	> 100 µM (inactive)	> 100 µM (inactive)	> 100 µM (inactive)
Oc1cc(Cl)ncn1	> 100 µM (inactive)	> 100 µM (inactive)	> 100 µM		> 100 µM (inactive)	> 100 µM (inactive)	> 100 µM (inactive)	> 100 µM (inactive)	> 100 µM (inactive)	> 100 µM (inactive)	> 100 µM (inactive)		> 100 µM (inactive)	> 100 µM (inactive)	> 100 µM (inactive)
CC1(C)Cc2c(C#N)c(N)c3c(c2CO1)C(=O)OC3=O	> 100 µM (inactive)	> 100 µM (inactive)	> 100 µM		> 100 µM (inactive)	> 100 µM (inactive)	> 100 µM (inactive)	> 100 µM (inactive)	> 100 µM (inactive)	> 100 µM (inactive)	> 100 µM (inactive)	> 100 µM (inactive)	> 100 µM (inactive)		> 100 µM (inactive)
CC(C)(c1ccc(OC#N)cc1)c1ccc(OC#N)cc1	> 46.6 µM (inactive)	> 100 µM (inactive)	20.3 µM	> 100 µM (inactive)	> 100 µM (inactive)	> 100 µM (inactive)	> 100 µM (inactive)	> 100 µM (inactive)	23.2 µM (inactive)	> 100 µM (inactive)	> 100 µM (inactive)	> 87.9 µM (inactive)	> 66.5 µM (inactive)	> 100 µM (inactive)	> 100 µM (inactive)
O=[N+]([O-])c1ccc2nc(/C(=N\Nc3ccccc3)C(O)c3ccc4c(c3)OCO4)c(O)nc2c1 (centres undefined)	> 100 µM (inactive)	> 100 µM (inactive)	20.7 µM	11 µM (inactive)	7.74 µM (inactive)	41.6 µM (inactive)	> 100 µM (inactive)	> 100 µM (inactive)	39 µM (inactive)	> 100 µM (inactive)	> 100 µM (inactive)	> 100 µM (inactive)	> 100 µM (inactive)	> 100 µM (inactive)	> 100 µM (inactive)
CNC(=O)CN1CC(=O)N(C)C(=O)C1	> 100 µM (inactive)		> 100 µM	> 100 µM (inactive)	> 100 µM (inactive)	> 100 µM (inactive)	> 100 µM (inactive)	> 100 µM (inactive)	> 100 µM (inactive)	> 100 µM (inactive)	> 100 µM (inactive)	> 100 µM (inactive)			> 100 µM (inactive)
c1ccc(C2=NOC3(c4ccccc4)SC4CCCCC4CN23)cc1 (centres undefined)	27.6 µM (inactive)	57.9 µM (inactive)	26.7 µM	15.9 µM (inactive)	14.7 µM (inactive)	25.5 µM (inactive)	12.7 µM (inactive)	29.8 µM (inactive)	9.42 µM (inactive)	39.4 µM (inactive)	45 µM (inactive)	15.9 µM (inactive)	22.8 µM (inactive)	28.1 µM (inactive)	62.4 µM (inactive)
O=C1CCC(=O)C(C(=O)CCC(=O)Nc2ccc(Cl)cc2)C1 (centres undefined)	> 100 µM (inactive)	> 100 µM (inactive)	> 100 µM	> 100 µM (inactive)	> 100 µM (inactive)	> 100 µM (inactive)	> 100 µM (inactive)	> 100 µM (inactive)	> 100 µM (inactive)	> 100 µM (inactive)	> 100 µM (inactive)		> 100 µM (inactive)	> 100 µM (inactive)	> 100 µM (inactive)
CC(C)CCS(=O)(=O)OCCCCOS(=O)(=O)CCC(C)C	> 100 µM (inactive)	> 100 µM (inactive)	> 100 µM		> 100 µM (inactive)	> 100 µM (inactive)	> 100 µM (inactive)	> 100 µM (inactive)	> 100 µM (inactive)	16.4 µM (inactive)		> 100 µM (inactive)	> 100 µM (inactive)	> 100 µM (inactive)	> 100 µM (inactive)
CCOC(=O)c1cnc2sc3ccc4ccccc4c3n2c1=O	79.3 µM (inactive)	74 µM (inactive)	46.3 µM	28.1 µM (inactive)	42.5 µM (inactive)	68.4 µM (inactive)	28.1 µM (inactive)	63.2 µM (inactive)		82.2 µM (inactive)	38.9 µM (inactive)	> 100 µM (inactive)	92.7 µM (inactive)	58.9 µM (inactive)	> 100 µM (inactive)
Cc1c(C(=O)CC(=O)C(=O)NC2C3CC4CC(C3)CC2C4)[n+]([O-])c2ccccc2[n+]1[O-] (centres undefined)	> 100 µM (inactive)	> 100 µM (inactive)	> 100 µM	> 100 µM (inactive)	> 100 µM (inactive)	> 100 µM (inactive)	> 100 µM (inactive)	> 100 µM (inactive)	> 100 µM (inactive)	24 µM (inactive)	> 100 µM (inactive)	> 100 µM (inactive)	> 100 µM (inactive)	> 100 µM (inactive)	> 100 µM (inactive)
CCOC(=O)c1nc2ccc([N+](=O)[O-])cc2c2c1CCO2	> 100 µM (inactive)	> 100 µM (inactive)	> 100 µM		> 100 µM (inactive)	> 100 µM (inactive)	> 100 µM (inactive)	> 100 µM (inactive)	92.3 µM (inactive)	> 100 µM (inactive)	> 100 µM (inactive)	> 100 µM (inactive)	> 100 µM (inactive)	> 100 µM (inactive)	> 100 µM (inactive)
